From US20040259198A1, “Purified and isolated mat II beta subunit nucleic acids and polypeptides and therapeutic and screening methods using same” (priority 1999, published 2004)
Like-named read-outs stand apart in the source and are kept apart here.

How the values were obtained:
MAT I = conditions: cited from earlier work
MAT II = experiment: MAT activity and kinetics in extracts of transfected Cos-1 cells; type: biochemical, African green monkey; conditions: for Km: Cos-1 cells expressing high levels of rα2, two kinetic forms, read-out: Km for L-Met, lower-Km kinetic form
Method: Transfection of Cos-1 cells with pTargeT™/MAT2A or pTargeT™/MAT2B was done using the cationic lipid reagent, Transfast™ (Promega). Preliminary experiments were carried out to optimize the transfection conditions. Typically, 1.5×10^6 cells were plated in 100 mm dish one day prior to transfection. For each plate, […] of vector DNA was applied in the ratio of 1:1 to Transfast™ in a protein-free medium for 2 h. For cells co-transfected with both α2 and β vectors, […] DNA from each was used. For each experiment, one untransfected plate served as a normal control, and a second plate was transfected with the pTargeT™ vector only (mock-transfected cells). After 48 h, cells were harvested by trypsinization with a solution containing 0.05% trypsin and 0.53 mM EDTA in Hank's balanced salt solution (HBSS, from Cellgro). Trypsinization was stopped by the addition of media supplemented with 10% FCS, cells were pelleted, washed three times in 1 ml HBSS, counted, then resuspended in 1× extraction buffer with protease inhibitors (50 mM Tris, pH 7.4, 100 mM NaCl, 5 mM MgCl2, 4 mM dithiothreitol, 0.1 IU/ml aprotinin, 0.5 mM PMSF and […] soybean trypsin inhibitor). Cells were lysed by three cycles of quick freezing and thawing, and the lysate was clarified by centrifugation at 15,000×g for 10 min at 4° C. If not immediately used; cell extracts were stored at −80° C. Protein assays were performed using the bicinchoninic acid reagent (Sigma) following the manufacturer instructions.
MAT activity in cell extracts was assayed as previously described (Kotb, M., and Kredich, N. M. (1985) J. Biol. Chem. 260, 3923-30). […] The concentration of L-Met was varied between […] using ^14C-L-Met (57.9 mCi/mmol) to a concentration of up to […], and supplementary with cold L-Met for higher concentrations.

MAT III = conditions: cited from earlier work
[1] = biological target: T1, MAT II from human leukemic cells (Homo sapiens, UniProt P31153); conditions: cited from earlier work
T1 construct: MAT II from human leukemic cells expressing both the α and β subunits of the enzyme; host or cells: human leukemic cells

Compound: MAT I: hepatic MAT, tetramer of the α1 catalytic subunit
- Km (MAT I; read-out: Km for L-Met): 3 to 14 µM

Compound: recombinant human MAT II α2: recombinant catalytic α2 subunit of human MAT II, encoded by MAT2A, His-tagged
- Km (MAT II; listed as rMAT II α2 protein): 15.1 µM
- Km (MAT II; listed as rα2): 15 µM
- effect on MAT (specific) activity (MAT II; expression in Cos-1 cells, result in words): markedly increased
- increase in MAT activity (MAT II; transfected Cos-1 cell extracts compared to untransfected (or mock-transfected) cells): 3-4 fold

Compound: MAT III: hepatic MAT, dimer of the α1 catalytic subunit
- Km (MAT III; read-out: Km for L-Met): 100 to 200 µM

Compound: C[S+](CC[C@H](N)C(=O)[O-])C[C@H]1O[C@@H](n2cnc3c(N)ncnc32)[C@H](O)[C@@H]1O (stereo partly shown) [AdoMet, S-adenosylmethionine, reference compound]
- effect of AdoMet on enzyme (MAT I): inhibited
- effect of AdoMet on enzyme (MAT III): activated
- inhibition of enzyme activity ([1]; 25 μM AdoMet and 30 μM PPi): 3 fold
- inhibition of enzyme activity ([1]; 25 μM AdoMet): ~2 fold
